According to the supplement of paper PMC10307832:

Experiments:
Assay in all cases: relative viability (nuclei count vs DMSO), 5 days (fraction); higher = more cells survive
[1] = tested on: 201T
Procedure, shortened: (§1)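 A single step with final 0.05% Triton X-100, 1% formaldehyde and 1 ug/ml Hoechst fixed the cells and stained nuclei 5 days after treatment. Lung cancer cell lines in 1536-well plates had been treated by pin tool the day after seeding with one drug alone or a fixed anchor-drug dose plus five library-drug doses (not always all listed) in √10 steps, and nuclei were counted on 4× images. Relative viability is the ratio of nuclei in treated wells to nuclei in vehicle wells, taken as the median of duplicate plates.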

[2] = tested on: ABC-1
Procedure, shortened: as §1

[3] = tested on: CAL-12T
Procedure, shortened: as §1

[4] = tested on: EMC-BAC-2
Procedure, shortened: as §1

[5] = tested on: H3255
Procedure, shortened: as §1

[6] = tested on: HOP-62
Procedure, shortened: as §1

[7] = tested on: LK-2
Procedure, shortened: as §1

[8] = tested on: LXF-289
Procedure, shortened: as §1

[9] = tested on: NCI-H1563
Procedure, shortened: as §1

[10] = tested on: NCI-H1651
Procedure, shortened: as §1

[11] = tested on: NCI-H1734
Procedure, shortened: as §1

[12] = tested on: NCI-H1755
Procedure, shortened: as §1

[13] = tested on: NCI-H2009
Procedure, shortened: as §1

[14] = tested on: NCI-H2087
Procedure, shortened: as §1

[15] = tested on: NCI-H2126
Procedure, shortened: as §1

[16] = tested on: NCI-H2170
Procedure, shortened: as §1

[17] = tested on: NCI-H322M
Procedure, shortened: as §1

[18] = tested on: NCI-H596
Procedure, shortened: as §1

[19] = tested on: NCI-H647
Procedure, shortened: as §1

Work on COCC1(CO)C(=O)C2CCN1CC2 (stereo not drawn) [PRIMA-1MET] + CS(=O)(=O)CCNCc1ccc(-c2ccc3ncnc(Nc4ccc(OCc5cccc(F)c5)c(Cl)c4)c3c2)o1 [Lapatinib] (partner 2 µM) yielded a relative viability ([1]; first compound 0.2 µM) of 1.15, a relative viability ([1]; first compound 0.6325 µM) of 0.695 and a relative viability ([1]; first compound 2 µM) of 0.834. For the same compound, the relative viability ([1]; first compound 6.325 µM) was 1.07, the relative viability ([1]; first compound 20 µM) was 1.01 and the relative viability ([2]; first compound 0.2 µM) was 1.05. For the same compound, the relative viability ([2]; first compound 0.6325 µM) was 1.11, the relative viability ([2]; first compound 2 µM) was 0.956 and the relative viability ([2]; first compound 6.325 µM) was 1.17. For the same compound, the relative viability ([2]; first compound 20 µM) was 1.03, the relative viability ([3]; first compound 0.2 µM) was 0.704 and the relative viability ([3]; first compound 0.6325 µM) was 0.736. For the same compound, the relative viability ([3]; first compound 2 µM) was 0.571, the relative viability ([3]; first compound 6.325 µM) was 0.677 and the relative viability ([3]; first compound 20 µM) was 0.388. The relative viability ([4]; first compound 0.2 µM) was 0.918, the relative viability ([4]; first compound 0.6325 µM) was 0.895 and the relative viability ([4]; first compound 2 µM) was 0.766. It also gave a relative viability ([4]; first compound 6.325 µM) of 0.89, a relative viability ([4]; first compound 20 µM) of 0.897 and a relative viability ([5]; first compound 0.2 µM) of 0.231. For the same compound, the relative viability ([5]; first compound 0.6325 µM) was 0.21, the relative viability ([5]; first compound 2 µM) was 0.225 and the relative viability ([5]; first compound 6.325 µM) was 0.237. For the same compound, the relative viability ([5]; first compound 20 µM) was 0.195, the relative viability ([6]; first compound 0.2 µM) was 1.17 and the relative viability ([6]; first compound 0.6325 µM) was 0.911. The relative viability ([6]; first compound 2 µM) was 0.887, the relative viability ([6]; first compound 6.325 µM) was 1.06 and the relative viability ([6]; first compound 20 µM) was 0.853. The relative viability ([7]; first compound 0.2 µM) was 0.885, the relative viability ([7]; first compound 0.6325 µM) was 0.755 and the relative viability ([7]; first compound 2 µM) was 0.6. It also gave a relative viability ([7]; first compound 6.325 µM) of 0.662, a relative viability ([7]; first compound 20 µM) of 0.18 and a relative viability ([8]; first compound 0.2 µM) of 0.878. For the same compound, the relative viability ([8]; first compound 0.6325 µM) was 0.879, the relative viability ([8]; first compound 2 µM) was 0.979 and the relative viability ([8]; first compound 6.325 µM) was 0.923. For the same compound, the relative viability ([8]; first compound 20 µM) was 0.836, the relative viability ([9]; first compound 0.2 µM) was 0.991 and the relative viability ([9]; first compound 0.6325 µM) was 0.988. For the same compound, the relative viability ([9]; first compound 2 µM) was 0.606, the relative viability ([9]; first compound 6.325 µM) was 1.09 and the relative viability ([9]; first compound 20 µM) was 0.455. The relative viability ([10]; first compound 0.2 µM) was 0.917, the relative viability ([10]; first compound 0.6325 µM) was 0.731 and the relative viability ([10]; first compound 2 µM) was 0.659. It also gave a relative viability ([10]; first compound 6.325 µM) of 0.839, a relative viability ([10]; first compound 20 µM) of 0.736 and a relative viability ([11]; first compound 0.2 µM) of 1.43. For the same compound, the relative viability ([11]; first compound 0.6325 µM) was 0.98, the relative viability ([11]; first compound 2 µM) was 0.857 and the relative viability ([11]; first compound 6.325 µM) was 1.07. It also gave a relative viability ([11]; first compound 20 µM) of 0.591, a relative viability ([12]; first compound 0.2 µM) of 1.04 and a relative viability ([12]; first compound 0.6325 µM) of 0.901. For the same compound, the relative viability ([12]; first compound 2 µM) was 0.846, the relative viability ([12]; first compound 6.325 µM) was 1.03 and the relative viability ([12]; first compound 20 µM) was 0.907. For the same compound, the relative viability ([13]; first compound 0.2 µM) was 0.66, the relative viability ([13]; first compound 0.6325 µM) was 0.844 and the relative viability ([13]; first compound 2 µM) was 0.669. The relative viability ([13]; first compound 6.325 µM) was 0.905, the relative viability ([13]; first compound 20 µM) was 0.0051 and the relative viability ([14]; first compound 0.2 µM) was 0.848. It also gave a relative viability ([14]; first compound 0.6325 µM) of 0.813, a relative viability ([14]; first compound 2 µM) of 0.848 and a relative viability ([14]; first compound 6.325 µM) of 1.22. The relative viability ([14]; first compound 20 µM) was 0.919, the relative viability ([15]; first compound 0.2 µM) was 0.875 and the relative viability ([15]; first compound 0.6325 µM) was 0.757. For the same compound, the relative viability ([15]; first compound 2 µM) was 0.733, the relative viability ([15]; first compound 6.325 µM) was 0.815 and the relative viability ([15]; first compound 20 µM) was 0.773. The relative viability ([16]; first compound 0.2 µM) was 0.263, the relative viability ([16]; first compound 0.6325 µM) was 0.236 and the relative viability ([16]; first compound 2 µM) was 0.237. It also gave a relative viability ([16]; first compound 6.325 µM) of 0.276, a relative viability ([16]; first compound 20 µM) of 0.273 and a relative viability ([17]; first compound 0.2 µM) of 0.634. The relative viability ([17]; first compound 6.325 µM) was 0.629, the relative viability ([17]; first compound 20 µM) was 0.61 and the relative viability ([18]; first compound 0.2 µM) was 1.14. It also gave a relative viability ([18]; first compound 0.6325 µM) of 1.01, a relative viability ([18]; first compound 2 µM) of 0.77 and a relative viability ([18]; first compound 6.325 µM) of 1.22. It also gave a relative viability ([18]; first compound 20 µM) of 1.02, a relative viability ([19]; first compound 0.2 µM) of 1.29 and a relative viability ([19]; first compound 0.6325 µM) of 1.09. For the same compound, the relative viability ([19]; first compound 2 µM) was 0.759, the relative viability ([19]; first compound 6.325 µM) was 1.29 and the relative viability ([19]; first compound 20 µM) was 0.783.
